Read-outs that look alike come from different tables or passages of the source.
Tested on: rat stomach (gastric ulcers, gastric swelling)
Format: in vivo, rat (male Charles River, Sprague-Dawley)
Conditions: for Number of Animals With Gastric Swelling / Number of Animals With Gastric Ulcers: 4 hours after dosing
Method: The rats are divided into groups 6-10 and dosed by the oral route with test compound, on a mg/kg. body weight basis, or vehicle control, 0.5% carboxymethylcellulose, in a volume of 3 ml. per rat. Four hours after dosing, the rats are decapitated and exsanguinated. Stomachs are removed and examined for gastric swelling and then opened and washed for visual inspection of gastric ulcers. Only one lesion or gastric bleeding is necessary for a positive response. Data is reported quantally.

O=C(O)C=C1c2ccccc2C=Cc2ccccc21 [DCHA]
gastric irritation (in words): neither causing gastric irritation nor affecting gastric secretions | effect on gastric secretion (in words, high doses): no effect on gastric secretion | gastric ulceration (rat, doses up to 480 mg/kg, in words): no gastric ulceration | Number of Animals With Gastric Swelling (rat, oral 60 mg/kg): 0/6 | Number of Animals With Gastric Ulcers (rat, oral 60 mg/kg): 0/6 | Number of Animals With Gastric Swelling (rat, oral 120 mg/kg): 0/6 | Number of Animals With Gastric Ulcers (rat, oral 120 mg/kg): 0/6 | Number of Animals With Gastric Swelling (rat, oral 240 mg/kg): 0/6 | Number of Animals With Gastric Ulcers (rat, oral 240 mg/kg): 0/6 | Number of Animals With Gastric Swelling (rat, oral 480 mg/kg): 0/6 | Number of Animals With Gastric Ulcers (rat, oral 480 mg/kg): 0/6
